Several values for one entry are separate records, joined by “and”; a condition that tells them apart may be missing. Equal entries are not always repeated. Where two headings read alike, the source gives them in different places.
Experiment: Ocular tissue concentrations (aqueous humor, vitreous humor, iris, retina, choroid, cornea) after topical ocular, subcutaneous and intravitreal administration
Format: in vivo, New Zealand White rabbits
Experimental: To measure the concentration of Compound 1 in plasma and ocular tissues following topical ocular, subcutaneous, and intravitreal administration, New Zealand White rabbits were administered Compound 1, and plasma and ocular samples were collected at pre-determined time points. Compound 1 formulations were prepared fresh on each day of dosing.
Ocular tissue samples from both eyes of each animal were collected and weights were recorded. Plasma and ocular tissue sample concentrations of Compound 1 were determined by LC-MS/MS.
New Zealand White rabbits weighing 2.5 to 3.5 kg were used on this study. Rabbits were housed one per cage. Animals were not fasted and only healthy animals with no ocular illness were used. Two rabbits per group were sacrificed at each of four ocular tissue sampling time points for a total of eight rabbits per group.
Animals were anesthetized for ocular (topical) and intravitreal dosing following the 12IA7 IACUC protocol. Each rabbit received a bolus dose of test formulation either via topical ocular administration 3 times daily on Days 1 and 2 (at 0, 6, and 12 hours), and once on Day 3 (at 0 hours) into both eyes; via intravitreal administration into both eyes once on Day 1 (at 0 hours); or via subcutaneous administration 2 times daily on Days 1 and 2 (at 0 and 8 hours) and once daily on Day 3 (at 0 hours). Doses were given within an approximately 1 hour window each day where applicable.
On Day 1, for intravitreal administration, or on Day 3, for topical ocular and subcutaneous administration, at the appropriate ocular tissue collection time points, animals were euthanized and both eyes were enucleated immediately. Following enucleation, each eye was rinsed with phosphate-buffered saline. Ocular tissue samples from both eyes of each animal were collected at predetermined time points and weights were recorded. All the samples were frozen immediately on dry ice, and stored at −60° C. to −80° C. pending bioanalysis.
An LC-MS/MS method was developed for the determination of Compound 1 in rabbit aqueous tissues (plasma, aqueous and vitreous humor) and solid ocular tissue samples. A pre-study standard curve was analyzed to determine the specificity, range, and lower limit of quantitation of the method. Plasma and tissue homogenate study samples were extracted and analyzed. All the samples were treated identically to the standards.
One eight-point standard curve was used in each analytical batch. To be accepted, each batch must have had at least five of eight standards with accuracy within ±20% of nominal, except at the lower limit of quantification (LLOQ), where ±25% was acceptable.
Concentration versus time data is plotted in FIGS. 3-16. All data are expressed as ng/g of the free drug. Samples that were below the limit of quantitation (0.2 ng/mL) were not used in the calculation of averages.

[1] = Group 3 subcutaneous 5 mg/kg, 0.5 hr
[2] = Group 3 subcutaneous 5 mg/kg, 1.0 hr
[3] = Group 3 subcutaneous 5 mg/kg, 2.0 hr
[4] = Group 3 subcutaneous 5 mg/kg, 4.0 hr
[5] = Group 5 intravitreal 2.5 mg per eye, 6.0 hr
[6] = Group 5 intravitreal 2.5 mg per eye, 24 hr
[7] = Group 5 intravitreal 2.5 mg per eye, 48 hr
[8] = Group 5 intravitreal 2.5 mg per eye, 72 hr

With `COC(=O)N[C@@H](Cc1ccccc1)C(=O)N[C@@H](Cc1ccc(NS(=O)(=O)O)cc1)c1csc(-c2cccs2)n1` [Compound 1 free acid] the “Average Peak Concentration, Vitreous Humor” value (Group 3 subcutaneous 5 mg/kg/dose, suspension) was 0.40 ng/g, the “aqueous humor Conc., individual eyes (OD, OS)” value [1] was “BLOQ (Below the limit of quantitation (0.2 ng/mL)) (2×) and 0.519 ng/mL and 1.90 ng/mL” and the “vitreous humor Conc., individual eyes (OD, OS)” value [1] was “BLOQ (Below the limit of quantitation (0.2 ng/mL)) and 0.261 ng/mL”. The “aqueous humor Conc., individual eyes (OD, OS)” value [2] was 0.485 ng/mL and 0.684 ng/mL and 0.229 ng/mL and 0.257 ng/mL, the “vitreous humor Conc., individual eyes (OD, OS)” value [2] was “BLOQ (Below the limit of quantitation (0.2 ng/mL))” and the “aqueous humor Conc., individual eyes (OD, OS)” value [3] was “BLOQ (Below the limit of quantitation (0.2 ng/mL)) and 0.594 ng/mL”. The “vitreous humor Conc., individual eyes (OD, OS)” value [3] was “BLOQ (Below the limit of quantitation (0.2 ng/mL))”, the “aqueous humor Conc., individual eyes (OD, OS)” value [4] was 0.229 ng/mL and BLOQ (Below the limit of quantitation (0.2 ng/mL)) and the “vitreous humor Conc., individual eyes (OD, OS)” value [4] was “BLOQ (Below the limit of quantitation (0.2 ng/mL))”. The “aqueous humor Conc., individual eyes (OD, OS)” value [5] was 34200 ng/mL and 15700 ng/mL and 23400 ng/mL and 32300 ng/mL, the “vitreous humor Conc., individual eyes (OD, OS)” value [5] was 592000 ng/mL and 625000 ng/mL and 432000 ng/mL and 270000 ng/mL and the “aqueous humor Conc., individual eyes (OD, OS)” value [6] was 3890 ng/mL and 6480 ng/mL and 5540 ng/mL and 1170 ng/mL. The “vitreous humor Conc., individual eyes (OD, OS)” value [6] was 528000 ng/mL and 491000 ng/mL and 320000 ng/mL, the “aqueous humor Conc., individual eyes (OD, OS)” value [7] was 476 ng/mL and 632 ng/mL and 1220 ng/mL and 1330 ng/mL and the “vitreous humor Conc., individual eyes (OD, OS)” value [7] was 75900 ng/mL and 148000 ng/mL and 68300 ng/mL and 99000 ng/mL. The “aqueous humor Conc., individual eyes (OD, OS)” value [8] was 145 ng/mL and 172 ng/mL and 94.1 ng/mL and 70.2 ng/mL, the “vitreous humor Conc., individual eyes (OD, OS)” value [8] was 96500 ng/mL and 101000 ng/mL and 16200 ng/mL and the concentration at 6 hr (New Zealand White, rabbit, aqueous humor, other: intravitreal, 2.5 mg per eye, Group 5 intravitreal 2.5 mg per eye, 6.0 hr, read-out: aqueous humor Average Conc.) was 26400 ng/g. It also gave a concentration at 24 hr (New Zealand White, rabbit, aqueous humor, other: intravitreal, 2.5 mg per eye, Group 5 intravitreal 2.5 mg per eye, 24 hr, read-out: aqueous humor Average Conc.) of 4270 ng/g, a concentration at 48 hr (New Zealand White, rabbit, aqueous humor, other: intravitreal, 2.5 mg per eye, Group 5 intravitreal 2.5 mg per eye, 48 hr, read-out: aqueous humor Average Conc.) of 915 ng/g and a concentration at 72 hr (New Zealand White, rabbit, aqueous humor, other: intravitreal, 2.5 mg per eye, Group 5 intravitreal 2.5 mg per eye, 72 hr, read-out: aqueous humor Average Conc.) of 120 ng/g. The concentration at 0.5 h (New Zealand White, rabbit, aqueous humor, subcutaneous, 5 mg/kg, Group 3 subcutaneous 5 mg/kg, 0.5 hr, read-out: aqueous humor Average Conc.) was 1.21 ng/g, the concentration at 1 h (New Zealand White, rabbit, aqueous humor, subcutaneous, 5 mg/kg, Group 3 subcutaneous 5 mg/kg, 1.0 hr, read-out: aqueous humor Average Conc.) was 0.41 ng/g and the concentration at 2 hr (New Zealand White, rabbit, aqueous humor, subcutaneous, 5 mg/kg, Group 3 subcutaneous 5 mg/kg, 2.0 hr, read-out: aqueous humor Average Conc.) was 0.66 ng/g. The concentration at 2 hr (New Zealand White, rabbit, aqueous humor, subcutaneous, 5 mg/kg, Group 3 subcutaneous 5 mg/kg, 2.0 hr, read-out: aqueous humor Conc., individual eyes (OD, OS)) was 0.601 ng/mL, the concentration at 4 hr (New Zealand White, rabbit, aqueous humor, subcutaneous, 5 mg/kg, Group 3 subcutaneous 5 mg/kg, 4.0 hr, read-out: aqueous humor Average Conc.) was 0.51 ng/g and the concentration at 4 hr (New Zealand White, rabbit, aqueous humor, subcutaneous, 5 mg/kg, Group 3 subcutaneous 5 mg/kg, 4.0 hr, read-out: aqueous humor Conc., individual eyes (OD, OS)) was 0.209 ng/mL. For the same compound, the concentration at 6 h (New Zealand White, rabbit, vitreous humor, other: intravitreal, 2.5 mg per eye, Group 5 intravitreal 2.5 mg per eye, 6.0 hr, read-out: vitreous humor Average Conc.) was 480000 ng/g, the concentration at 24 h (New Zealand White, rabbit, vitreous humor, other: intravitreal, 2.5 mg per eye, Group 5 intravitreal 2.5 mg per eye, 24 hr, read-out: vitreous humor Average Conc.) was 409000 ng/g and the concentration at 24 h (New Zealand White, rabbit, vitreous humor, other: intravitreal, 2.5 mg per eye, Group 5 intravitreal 2.5 mg per eye, 24 hr, read-out: vitreous humor Conc., individual eyes (OD, OS)) was 296000 ng/mL. The concentration at 48 h (New Zealand White, rabbit, vitreous humor, other: intravitreal, 2.5 mg per eye, Group 5 intravitreal 2.5 mg per eye, 48 hr, read-out: vitreous humor Average Conc.) was 97800 ng/g, the concentration at 72 h (New Zealand White, rabbit, vitreous humor, other: intravitreal, 2.5 mg per eye, Group 5 intravitreal 2.5 mg per eye, 72 hr, read-out: vitreous humor Average Conc.) was 65400 ng/g and the concentration at 0.5 hr (New Zealand White, rabbit, vitreous humor, subcutaneous, 5 mg/kg, Group 3 subcutaneous 5 mg/kg, 0.5 hr, read-out: vitreous humor Average Conc.) was 0.4 ng/g. For the same compound, the concentration at 0.5 hr (New Zealand White, rabbit, vitreous humor, subcutaneous, 5 mg/kg, Group 3 subcutaneous 5 mg/kg, 0.5 hr, read-out: vitreous humor Conc., individual eyes (OD, OS)) was 0.227 ng/mL, the concentration at 1 hr (New Zealand White, rabbit, vitreous humor, subcutaneous, 5 mg/kg, Group 3 subcutaneous 5 mg/kg, 1.0 hr, read-out: vitreous humor Average Conc.) was 0.41 ng/g and the concentration at 1 hr (New Zealand White, rabbit, vitreous humor, subcutaneous, 5 mg/kg, Group 3 subcutaneous 5 mg/kg, 1.0 hr, read-out: vitreous humor Conc., individual eyes (OD, OS)) was 0.407 ng/mL. It also gave a concentration at 4 hr (New Zealand White, rabbit, vitreous humor, subcutaneous, 5 mg/kg, Group 3 subcutaneous 5 mg/kg, 4.0 hr, read-out: vitreous humor Average Conc.) of 0.41 ng/g and a concentration at 4 hr (New Zealand White, rabbit, vitreous humor, subcutaneous, 5 mg/kg, Group 3 subcutaneous 5 mg/kg, 4.0 hr, read-out: vitreous humor Conc., individual eyes (OD, OS)) of 0.408 ng/mL.

From patent publication US11666558B2, “Methods of treating intraocular pressure with activators of Tie-2” (EyePoint Pharmaceuticals, Inc., priority 2015, dated 2023)
